# Target: T1, PSMA (prostate-specific membrane antigen); glutamate carboxypeptidase II (GCPII) (Homo sapiens, UniProt Q04609)
# T1 construct: gene FOLH1; native full-length type II transmembrane protein on intact LNCaP cells; 750 amino acids
# Assay: competitive radioligand assay on LNCaP cells
# Type: cell-based
# Conditions: competition with 0.75 nM [68Ga]Ga-PSMA-10, 45 min
# Excerpt: competitive radioligand assay on LNCaP cells on PSMA (prostate-specific membrane antigen); glutamate carboxypeptidase II (GCPII)
# T1 sequence (Q04609 whole entry): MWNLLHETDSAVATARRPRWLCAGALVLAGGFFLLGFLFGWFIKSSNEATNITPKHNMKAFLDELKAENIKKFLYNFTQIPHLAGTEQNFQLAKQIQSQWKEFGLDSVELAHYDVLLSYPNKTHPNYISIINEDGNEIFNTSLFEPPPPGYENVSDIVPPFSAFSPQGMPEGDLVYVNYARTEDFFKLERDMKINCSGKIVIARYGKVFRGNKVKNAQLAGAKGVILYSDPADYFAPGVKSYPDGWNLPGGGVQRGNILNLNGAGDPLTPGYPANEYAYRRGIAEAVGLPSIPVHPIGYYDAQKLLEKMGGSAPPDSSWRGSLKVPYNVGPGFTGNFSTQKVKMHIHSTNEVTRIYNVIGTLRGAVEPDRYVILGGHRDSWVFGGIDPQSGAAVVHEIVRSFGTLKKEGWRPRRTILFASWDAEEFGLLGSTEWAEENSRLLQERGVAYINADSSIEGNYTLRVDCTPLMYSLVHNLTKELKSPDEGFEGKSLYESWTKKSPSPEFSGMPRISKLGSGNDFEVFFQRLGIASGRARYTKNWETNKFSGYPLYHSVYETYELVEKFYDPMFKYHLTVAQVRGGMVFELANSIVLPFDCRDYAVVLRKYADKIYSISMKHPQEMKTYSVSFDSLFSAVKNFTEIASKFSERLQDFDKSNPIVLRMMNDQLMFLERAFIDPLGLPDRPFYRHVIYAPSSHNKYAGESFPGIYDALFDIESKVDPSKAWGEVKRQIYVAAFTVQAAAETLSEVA
Structure (SMILES),"Ki (reference compound, footnote: IC50 values can be found in the earlier paper of the same first author (ref 48), cited from earlier work) [µM]",Ki (metal-free ligand) [µM]
O=C(O)CC[C@H](NC(=O)N[C@@H](CCCCNC(=O)[C@H](Cc1ccc2ccccc2c1)NC(=O)[C@H]1CC[C@H](CNC(=O)CN2CCN(CC(=O)O)CCN(CC(=O)O)CCN(CC(=O)O)CC2)CC1)C(=O)O)C(=O)O [PSMA-617],0.0069 ± 0.0013,–
"NCCCC[C@H](NC(=O)CN1CCN(CC(=O)O)CCN(CC(=O)O)CCN(CC(=O)O)CC1)C(=O)NC[C@H]1CC[C@H](C(=O)N[C@@H](Cc2ccc3ccccc3c2)C(=O)NCCCC[C@H](NC(=O)N[C@@H](CCC(=O)O)C(=O)O)C(=O)O)CC1 [compound 12, DOTA-L-Lys-PSMA-617]",–,0.0197 ± 0.0033
"O=C(O)CC[C@H](NC(=O)N[C@@H](CCCCNC(=O)[C@H](Cc1ccc2ccccc2c1)NC(=O)[C@H]1CC[C@H](CNC(=O)[C@H](CCCCNc2c(NCCC(O)(P(=O)(O)O)P(=O)(O)O)c(=O)c2=O)NC(=O)CN2CCN(CC(=O)O)CCN(CC(=O)O)CCN(CC(=O)O)CC2)CC1)C(=O)O)C(=O)O [compound 13, DOTA-L-Lys(SA.Pam)-PSMA-617]",–,0.0526 ± 0.0035

# Reference: paper PMC11440839, “DOTA Conjugate of Bisphosphonate and PSMA-Inhibitor: A Promising Combination for Therapy of Prostate Cancer Related Bone Metastases” (Frontiers in Nuclear Medicine, 2022)
